# Measured values as given in PubChem BioAssay AID256 (DTP/NCI, 2004).
# Values joined by “and” are separate entries in the source; they are usually repeats but may differ in a detail not shown here. Equal values may be shown once. Toxic doses and inconclusive results are not listed.
# System: CD2F1 mice, L1210 leukemia ip, survival T/C
# Experiment: NCI In Vivo Anticancer Drug Screen. Data for tumor model L1210 Leukemia (intraperitoneal) in CD2F1 (CDF1) mice
# Details: higher = longer survival
# Summary of the method: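 Tumor-bearing mice (transplanted tumor) were split into treated and vehicle control groups, and the measured endpoint of each treated group was divided by that of its vehicle controls.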
# [1] = endpoint: mean survival time, dose: 50.0 mg/kg/injection, schedule: Q01DX009 (ip), vehicle: saline with Tween-80
# [2] = endpoint: mean survival time, dose: 100.0 mg/kg/injection, schedule: Q01DX009 (ip), vehicle: saline with Tween-80
# [3] = endpoint: mean survival time, dose: 200.0 mg/kg/injection, schedule: Q01DX009 (ip), vehicle: saline with Tween-80
# [4] = endpoint: mean survival time, dose: 12.5 mg/kg/injection, schedule: Q01DX005 (ip), vehicle: distilled water + Tween-80
# [5] = endpoint: mean survival time, dose: 25.0 mg/kg/injection, schedule: Q01DX005 (ip), vehicle: distilled water + Tween-80
# [6] = endpoint: mean survival time, dose: 100.0 mg/kg/injection, schedule: Q01DX005 (ip), vehicle: distilled water + Tween-80
# [7] = endpoint: mean survival time, dose: 100.0 mg/kg/injection, schedule: Q04DX003 (ip), vehicle: saline with Tween-80
# [8] = endpoint: mean survival time, dose: 200.0 mg/kg/injection, schedule: Q04DX003 (ip), vehicle: saline with Tween-80
# [9] = endpoint: mean survival time, dose: 400.0 mg/kg/injection, schedule: Q01DX009 (ip), vehicle: saline with Tween-80
# [10] = endpoint: mean survival time, dose: 400.0 mg/kg/injection, schedule: Q04DX003 (ip), vehicle: saline with Tween-80
smiles,measurement,setting,value
N#CC(C#N)=NNc1ccc2cn[nH]c2c1,T/C,"endpoint: median survival time, dose: 12.5 mg/kg/injection, schedule: Q01DX009 (ip), vehicle: Klucel (hydroxypropylcellulose) (HPC)",98 % of control
same,T/C,"endpoint: median survival time, dose: 25.0 mg/kg/injection, schedule: Q01DX009 (ip), vehicle: Klucel (hydroxypropylcellulose) (HPC)",101 % of control
same,T/C,"endpoint: median survival time, dose: 50.0 mg/kg/injection, schedule: Q01DX009 (ip), vehicle: Klucel (hydroxypropylcellulose) (HPC)",111 % of control
same,T/C,"endpoint: median survival time, dose: 100.0 mg/kg/injection, schedule: Q01DX009 (ip), vehicle: Klucel (hydroxypropylcellulose) (HPC)",115 % of control
CCC1(O)C(=O)OCc2c1cc1n(c2=O)Cc2cc3ccc(C(=O)O)cc3nc2-1 (centres undefined),T/C,"endpoint: median survival time, dose: 10.0 mg/kg/injection, schedule: Q04DX002 (ip), vehicle: saline with Tween-80",108 % of control
same,T/C,"endpoint: median survival time, dose: 10.0 mg/kg/injection, schedule: Q04DX002 (ip), vehicle: water",100 % of control
same,T/C,"endpoint: median survival time, dose: 20.0 mg/kg/injection, schedule: Q04DX002 (ip), vehicle: saline with Tween-80",101 % of control
same,T/C,"endpoint: median survival time, dose: 20.0 mg/kg/injection, schedule: Q04DX002 (ip), vehicle: water",109 % of control
same,T/C,"endpoint: median survival time, dose: 40.0 mg/kg/injection, schedule: Q04DX002 (ip), vehicle: saline with Tween-80",108 % of control
same,T/C,"endpoint: median survival time, dose: 40.0 mg/kg/injection, schedule: Q04DX002 (ip), vehicle: water",106 % of control
same,T/C,"endpoint: median survival time, dose: 80.0 mg/kg/injection, schedule: Q04DX002 (ip), vehicle: saline with Tween-80",108 % of control
same,T/C,"endpoint: median survival time, dose: 80.0 mg/kg/injection, schedule: Q04DX002 (ip), vehicle: water",106 % of control
O=C1c2ccccc2C(=O)c2c(NCCCNCCO)ccc(NCCCNCCO)c21,T/C,"endpoint: mean survival time, dose: 12.5 mg/kg/injection, schedule: Q01DX009 (ip), vehicle: saline with Tween-80",104 % of control
same,T/C,"endpoint: mean survival time, dose: 25.0 mg/kg/injection, schedule: Q01DX009 (ip), vehicle: saline with Tween-80",96 % of control
same,T/C,[1],102 % of control
CCCC/C=C\C(=O)OC,T/C,[1],101 % of control
same,T/C,[2],104 % of control
same,T/C,[3],101 % of control
O=C(O)c1ccccc1.[Pb],T/C,"endpoint: mean survival time, dose: 100.0 mg/kg/injection, schedule: Q01DX001 (ip), vehicle: saline",94 % of control
same,T/C,"endpoint: mean survival time, dose: 200.0 mg/kg/injection, schedule: Q01DX001 (ip), vehicle: saline",102 % of control
same,T/C,"endpoint: mean survival time, dose: 400.0 mg/kg/injection, schedule: Q01DX001 (ip), vehicle: saline",96 % of control
O=c1ccn(C2CC3[O][Sn]([c]4ccccc4)([c]4ccccc4)[O]CC3O2)c(=O)[nH]1 (centres undefined),T/C,"endpoint: mean survival time, dose: 6.25 mg/kg/injection, schedule: Q01DX005 (ip), vehicle: distilled water + Tween-80",104 % of control
same,T/C,[4],98 % of control
same,T/C,[5],108 % of control
same,T/C,[6],90 % of control
CC(=O)NCCc1ccccc1,T/C,"endpoint: mean survival time, dose: 100.0 mg/kg/injection, schedule: Q01DX009 (ip), vehicle: Klucel (hydroxypropylcellulose) (HPC)",109 % of control
same,T/C,"endpoint: mean survival time, dose: 100.0 mg/kg/injection, schedule: Q04DX003 (ip), vehicle: saline sonified",103 % of control
same,T/C,"endpoint: mean survival time, dose: 200.0 mg/kg/injection, schedule: Q01DX009 (ip), vehicle: Klucel (hydroxypropylcellulose) (HPC)",102 % of control
same,T/C,"endpoint: mean survival time, dose: 200.0 mg/kg/injection, schedule: Q04DX003 (ip), vehicle: saline sonified",109 % of control
same,T/C,"endpoint: mean survival time, dose: 400.0 mg/kg/injection, schedule: Q01DX009 (ip), vehicle: Klucel (hydroxypropylcellulose) (HPC)",104 % of control
same,T/C,"endpoint: mean survival time, dose: 400.0 mg/kg/injection, schedule: Q04DX003 (ip), vehicle: saline sonified",97 % of control
O=C(NO)c1cccc(O)c1O,T/C,"endpoint: median survival time, dose: 200.0 mg/kg/injection, schedule: Q01DX009 (ip), vehicle: distilled water + Tween-80",162 % of control
same,T/C,"endpoint: median survival time, dose: 300.0 mg/kg/injection, schedule: Q01DX009 (ip), vehicle: distilled water + Tween-80",170 % of control
same,T/C,"endpoint: median survival time, dose: 450.0 mg/kg/injection, schedule: Q01DX009 (ip), vehicle: distilled water + Tween-80",104 % of control
CN=C(N)N/N=C(\c1ccccc1)c1ccc(Br)cc1,T/C,"endpoint: median survival time, dose: 3.12 mg/kg/injection, schedule: Q01DX009 (ip), vehicle: saline",100 % of control
same,T/C,"endpoint: median survival time, dose: 6.25 mg/kg/injection, schedule: Q01DX009 (ip), vehicle: saline",106 % of control
same,T/C,"endpoint: median survival time, dose: 12.5 mg/kg/injection, schedule: Q01DX009 (ip), vehicle: saline",107 % of control
same,T/C,"endpoint: median survival time, dose: 25.0 mg/kg/injection, schedule: Q01DX009 (ip), vehicle: saline",121 % of control
N\C([S-])=N/N=C\C(=N/N=C(\N)[S-])C(O)C(O)C(O)CO.[Pd+2] (centres undefined),T/C,[1],112 % of control
same,T/C,[2],104 % of control
same,T/C,[3],89 % of control
C=COC(=O)NC(CC(C)C)C(=O)O (centres undefined),T/C,"endpoint: mean survival time, dose: 75.0 mg/kg/injection, schedule: Q01DX001 (ip), vehicle: saline",103 % of control
same,T/C,"endpoint: mean survival time, dose: 150.0 mg/kg/injection, schedule: Q01DX001 (ip), vehicle: saline",101 % of control
Fc1c(F)c(F)[c]([Ge]([c]2c(F)c(F)c(F)c(F)c2F)([c]2c(F)c(F)c(F)c(F)c2F)[c]2c(F)c(F)c(F)c(F)c2F)c(F)c1F,T/C,[2],97 % of control
same,T/C,[7],86 % of control
same,T/C,[3],92 % of control
same,T/C,[8],91 % of control
same,T/C,[9],91 % of control
same,T/C,[10],93 % of control
O=C1c2ccccc2C(=O)N1CCN1C(=O)c2ccccc2C1=O,T/C,"endpoint: mean survival time, dose: 75.0 mg/kg/injection, schedule: Q01DX001 (ip), vehicle: saline with Tween-80",94 % of control
same,T/C,"endpoint: mean survival time, dose: 150.0 mg/kg/injection, schedule: Q01DX001 (ip), vehicle: saline with Tween-80",95 % of control
same,T/C,"endpoint: mean survival time, dose: 300.0 mg/kg/injection, schedule: Q01DX001 (ip), vehicle: saline with Tween-80",94 % of control
Oc1ccc2c3c1OC1C(O)C=CC4C(C2)NCCC341 (centres undefined),T/C,"endpoint: mean survival time, dose: 25.0 mg/kg/injection, schedule: Q04DX003 (ip), vehicle: DMSO",95 % of control
same,T/C,"endpoint: mean survival time, dose: 50.0 mg/kg/injection, schedule: Q04DX003 (ip), vehicle: DMSO",95 % of control
same,T/C,"endpoint: mean survival time, dose: 100.0 mg/kg/injection, schedule: Q04DX003 (ip), vehicle: DMSO",106 % of control
O=C1C2(c3ccccc3)CCC1(c1ccccc1)C(c1ccccc1)=C2c1ccccc1,T/C,"endpoint: mean survival time, dose: 25.0 mg/kg/injection, schedule: Q01DX001 (ip), vehicle: saline with Tween-80",94 % of control
same,T/C,"endpoint: mean survival time, dose: 50.0 mg/kg/injection, schedule: Q01DX001 (ip), vehicle: saline with Tween-80",87 % of control
same,T/C,"endpoint: mean survival time, dose: 100.0 mg/kg/injection, schedule: Q01DX001 (ip), vehicle: saline with Tween-80",90 % of control
COC1OC(CO)C(n2cnc3c2c(=O)n(C)c(=O)n3C)C=C1NC(C)=O (centres undefined),T/C,[4],100 % of control
same,T/C,"endpoint: mean survival time, dose: 12.5 mg/kg/injection, schedule: Q01DX005 (ip), vehicle: water",88 % of control
same,T/C,[5],96 % of control
same,T/C,"endpoint: mean survival time, dose: 25.0 mg/kg/injection, schedule: Q01DX005 (ip), vehicle: water",96 % of control
same,T/C,"endpoint: mean survival time, dose: 50.0 mg/kg/injection, schedule: Q01DX005 (ip), vehicle: water",92 % of control
same,T/C,[6],92 % of control
same,T/C,"endpoint: mean survival time, dose: 100.0 mg/kg/injection, schedule: Q01DX005 (ip), vehicle: water",103 % of control
same,T/C,"endpoint: mean survival time, dose: 200.0 mg/kg/injection, schedule: Q01DX005 (ip), vehicle: distilled water + Tween-80",100 % of control
same,T/C,"endpoint: mean survival time, dose: 200.0 mg/kg/injection, schedule: Q01DX005 (ip), vehicle: water",96 % of control
O=C(C#Cc1ccccc1)c1ccccc1,T/C,"endpoint: mean survival time, dose: 3.12 mg/kg/injection, schedule: Q01DX009 (ip), vehicle: Klucel (hydroxypropylcellulose) (HPC)",86 % of control and 98 % of control
same,T/C,"endpoint: mean survival time, dose: 6.25 mg/kg/injection, schedule: Q01DX009 (ip), vehicle: Klucel (hydroxypropylcellulose) (HPC)",92 % of control and 97 % of control
same,T/C,"endpoint: mean survival time, dose: 12.5 mg/kg/injection, schedule: Q01DX009 (ip), vehicle: Klucel (hydroxypropylcellulose) (HPC)",92 % of control and 104 % of control
same,T/C,"endpoint: mean survival time, dose: 25.0 mg/kg/injection, schedule: Q01DX009 (ip), vehicle: Klucel (hydroxypropylcellulose) (HPC)",86 % of control and 107 % of control
same,T/C,"endpoint: mean survival time, dose: 50.0 mg/kg/injection, schedule: Q01DX009 (ip), vehicle: Klucel (hydroxypropylcellulose) (HPC)",89 % of control
Nc1cc(S(=O)(=O)c2ccc(N3CCCCC3)c(N)c2)ccc1N1CCCCC1,T/C,[2],110 % of control
same,T/C,[3],113 % of control
NC(CCSCc1ccccc1)C(=O)O (centres undefined),T/C,[2],91 % of control
same,T/C,[7],98 % of control
same,T/C,[3],91 % of control
same,T/C,[8],93 % of control
same,T/C,[9],91 % of control
same,T/C,[10],95 % of control
CC1=C(N2CC2)C(=O)c2c(COC(N)=O)c3n(c2C1=O)C[C@H]1N[C@@H]31,T/C,"endpoint: mean survival time, dose: 3.0 mg/kg/injection, schedule: Q01DX001 (ip), vehicle: distilled water + Tween-80",106 % of control
same,T/C,"endpoint: mean survival time, dose: 6.0 mg/kg/injection, schedule: Q01DX001 (ip), vehicle: distilled water + Tween-80",118 % of control
same,T/C,"endpoint: mean survival time, dose: 12.0 mg/kg/injection, schedule: Q01DX001 (ip), vehicle: distilled water + Tween-80",122 % of control
same,T/C,"endpoint: mean survival time, dose: 24.0 mg/kg/injection, schedule: Q01DX001 (ip), vehicle: distilled water + Tween-80",120 % of control
